How the values were obtained:
Format in all cases: biochemical
JAK1 = target: T1, JAK1 (Homo sapiens, UniProt P23458); test: Z'-LYTE kinase assay, JAK1 tyrosine phosphorylation activity; conditions: read-out: JAK 1 IC50
T1 construct: 5 μl of catalytic domain recombinant Kinase enzyme+Tyr peptide substrate (Invitrogen, Calif.); purchased Invitrogen
Method: (§1) JAK and TYK2 tyrosine phosphorylation activity is measured using the Z′-LYTE™ Technology developed by Invitrogen Corporation (Carlsbad, Calif.). For JAK1, JAK2 and JAK3 the Z′-LYTE™ Kinase Assay Kit-Tyr6 Peptide (part number PV4122) was used. For TYK2 the Z′-LYTE™ Kinase Assay Kit-Tyr6 Peptide (part number PV3192) was used. The Z′-LYTE™ biochemical assay employs a fluorescence resonance energy transfer (FRET) coupled-enzyme format and is based on the differential sensitivity of phosphorylated and non-phosphorylated peptides to proteolitic cleavage. The assay uses a synthetic peptide substrate that is labelled with a donor fluorophore (coumarin) and an acceptor fluorophore (fluorescein) that make up a FRET pair. In the primary reaction (the Kinase Reaction), the kinase transfers the γ-phosphate of ATP to a single tyrosine residue on the substrate, while the presence of a kinase inhibitor in the primary reaction suppresses phosphorylation. In the secondary reaction (the Development Reaction), a site-specific protease (the Development Reagent) is added. The development buffer quenches the Kinase Reaction, while the protease recognizes and cleaves non-phosphorylated Z′-LYTE™ peptide substrate. Cleavage disrupts FRET between the donor and acceptor fluorophores on the non-phosphoryleted substrate, while uncleaved, phosphorylated substrate maintains FRET.
(§2) To test the ability of candidate molecules to inhibit JAK tyrosine phosphorylation activity, molecules are reconstituted in 100% DMSO and serially diluted 1:10 in polypropylene v-bottom microtiter plates. The candidate molecules are then diluted 1:25 into kinase buffer and 2.5 μl transferred into duplicate wells of a 384 well low volume black microtiter assay plate (Corning, USA). The final DMSO concentration in the assay is 1%. The kinase reaction contains 2.5 μl of a candidate molecule, 5 μl of catalytic domain recombinant Kinase enzyme+Tyr peptide substrate (Invitrogen, Calif.) and 2.5 μl ATP (Invitrogen, Calif.). The kinase reaction is allowed to procede for 1 hour at room temperature. The protease reaction is initiated by the addition of 5 μl Development Reagent (Invitrogen, Calif.). After 1 hour incubation at room temperature the fluorescence is measured using a FlexStation plate reader (Molecular Devices, Sunnyvale, Calif.). The reader settings used are as follows: Fluorescence mode, endpoint, top read, excitation 400 nm, emission 445 nm and 520 nm, Auto Cutoff 435 nm and 515 nm, PMT sensitivity high, 6 reads per well. Inhibition of JAK activity is calculated as the percent phosphorylation of substrate in the presence of inhibitor compared to the percent phosphorylation of substrate in the absence of inhibitor. IC50's were derived using Xlfit 4.3 (IDBS, UK), 4 parameter logistic model 205: Y=(A+((B−A)/(1+((C/x)^D)))).

JAK2 = target: T2, JAK2 (Homo sapiens, UniProt O60674); test: Z'-LYTE kinase assay, JAK2 tyrosine phosphorylation activity
T2 construct: 5 μl of catalytic domain recombinant Kinase enzyme+Tyr peptide substrate (Invitrogen, Calif.); purchased Invitrogen
T2 sequence (O60674 849-1124 limits assumed): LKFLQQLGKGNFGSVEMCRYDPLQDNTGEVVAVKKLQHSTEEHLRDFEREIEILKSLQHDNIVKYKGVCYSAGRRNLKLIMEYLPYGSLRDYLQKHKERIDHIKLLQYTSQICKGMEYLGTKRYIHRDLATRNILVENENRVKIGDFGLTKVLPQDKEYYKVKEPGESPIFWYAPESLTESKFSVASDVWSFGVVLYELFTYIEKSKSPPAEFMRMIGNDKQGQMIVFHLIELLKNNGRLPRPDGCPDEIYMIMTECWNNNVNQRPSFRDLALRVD
Method: as §1, §2

JAK3 = target: T3, JAK3 (Homo sapiens, UniProt P52333); test: Z'-LYTE kinase assay, JAK3 tyrosine phosphorylation activity
T3 construct: 5 μl of catalytic domain recombinant Kinase enzyme+Tyr peptide substrate (Invitrogen, Calif.); purchased Invitrogen
T3 sequence (P52333 822-1111 limits assumed): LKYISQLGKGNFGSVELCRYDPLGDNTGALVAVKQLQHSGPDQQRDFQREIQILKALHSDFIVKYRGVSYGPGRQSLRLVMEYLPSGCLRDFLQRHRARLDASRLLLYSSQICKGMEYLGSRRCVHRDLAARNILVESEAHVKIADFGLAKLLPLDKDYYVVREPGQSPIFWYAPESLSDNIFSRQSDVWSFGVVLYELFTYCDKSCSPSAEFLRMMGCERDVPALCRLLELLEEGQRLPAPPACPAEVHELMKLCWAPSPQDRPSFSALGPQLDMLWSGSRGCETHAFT
Method: as §1, §2

TYK2 = target: T4, TYK2 (Homo sapiens, UniProt P29597); test: Z'-LYTE kinase assay, TYK2 tyrosine phosphorylation activity
T4 construct: 5 μl of catalytic domain recombinant Kinase enzyme+Tyr peptide substrate (Invitrogen, Calif.); purchased Invitrogen
T4 sequence (P29597 897-1176 limits assumed): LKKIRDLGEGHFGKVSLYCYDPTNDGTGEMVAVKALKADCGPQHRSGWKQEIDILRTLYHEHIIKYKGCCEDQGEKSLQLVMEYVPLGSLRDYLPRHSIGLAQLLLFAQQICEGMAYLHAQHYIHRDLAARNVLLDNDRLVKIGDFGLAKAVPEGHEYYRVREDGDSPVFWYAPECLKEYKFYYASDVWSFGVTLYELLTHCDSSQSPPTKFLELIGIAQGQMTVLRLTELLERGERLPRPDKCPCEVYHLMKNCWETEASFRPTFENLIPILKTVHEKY
Method: as §1, §2

T1 sequence (P23458 875-1153 limits assumed): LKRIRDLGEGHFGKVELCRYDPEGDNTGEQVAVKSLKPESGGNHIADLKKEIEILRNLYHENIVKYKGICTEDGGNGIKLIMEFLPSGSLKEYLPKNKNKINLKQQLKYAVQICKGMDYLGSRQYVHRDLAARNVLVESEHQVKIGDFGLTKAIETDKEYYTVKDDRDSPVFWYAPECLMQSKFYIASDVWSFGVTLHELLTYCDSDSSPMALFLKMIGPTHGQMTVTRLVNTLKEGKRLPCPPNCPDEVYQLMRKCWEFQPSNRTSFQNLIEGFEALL

| Compound | IC50 (JAK1) | IC50 (JAK2) | IC50 (JAK3) | IC50 (TYK2) |
| --- | --- | --- | --- | --- |
| NC(=O)c1cnc(Nc2ccc(Cl)c(NC(=O)N3CCCC3)c2)nc1NCC1CCC1 [Example 263, 2-(4-chloro-3-(pyrrolidine-1-carboxamido)phenylamino)-4-(cyclobutylmethylamino)pyrimidine-5-carboxamide] | > 1 µM | > 1 µM | > 1 µM | > 1 µM |
| NC(=O)c1cnc(Nc2ccc(Cl)c(NC(=O)N3CCCC3)c2)nc1NCC1CC1 [Example 174, 2-(4-chloro-3-(pyrrolidine-1-carboxamido)phenylamino)-4-(cyclopropylmethylamino)pyrimidine-5-carboxamide] | 0.01 to 0.1 µM | 0.1 to 1 µM | 0.01 to 0.1 µM | 0.01 to 0.1 µM |
| CC(=O)Nc1cccc(Nc2ncc(C(N)=O)c(NCc3cccc(F)c3F)n2)c1 [Example 95, 2-(3-acetamidophenylamino)-4-(2,3-difluorobenzylamino)pyrimidine-5-carboxamide] | 0.01 to 0.1 µM | 0.01 to 0.1 µM | 0.001 to 0.01 µM | 0.01 to 0.1 µM |
| CC(=O)Nc1cc(Nc2ncc(C(N)=O)c(NCc3cccc(F)c3)n2)ccc1OCCN(C)C [Example 228, 2-(3-acetamido-4-(2-(dimethylamino)ethoxy)phenylamino)-4-(3-fluorobenzylamino)pyrimidine-5-carboxamide] | 0.1 to 1 µM | 0.01 to 0.1 µM | 0.001 to 0.01 µM | 0.01 to 0.1 µM |
| CC(=O)Nc1cc(Cl)cc(Nc2ncc(C(N)=O)c(NCc3ccccc3)n2)c1 [Example 260, 2-(3-acetamido-5-chlorophenylamino)-4-(benzylamino)pyrimidine-5-carboxamide] | > 1 µM | 0.1 to 1 µM | 0.01 to 0.1 µM | 0.01 to 0.1 µM |
| CC(=O)Nc1cccc(Nc2ncc(C(N)=O)c(NCc3cccnc3)n2)c1 [Example 188, 2-(3-acetamidophenylamino)-4-(pyridin-3-ylmethylamino)pyrimidine-5-carboxamide] | 0.1 to 1 µM | 0.01 to 0.1 µM | 0.001 to 0.01 µM | 0.01 to 0.1 µM |
| COc1ccc(Nc2ncc(C(N)=O)c(NCc3cccc(F)c3)n2)cc1N(C)C(=O)N1CCCC1 [Example 240, 4-(3-fluorobenzylamino)-2-(4-methoxy-3-(N-methylpyrrolidine-1-carboxamido)phenylamino)pyrimidine-5-carboxamide] | > 1 µM | > 1 µM | 0.1 to 1 µM | > 1 µM |
| NC(=O)c1cnc(Nc2cccc(NC(=O)N3CCOCC3)c2)nc1NCc1cccc(F)c1 [Example 259] | 0.01 to 0.1 µM | 0.001 to 0.01 µM | 0.001 to 0.01 µM | 0.001 to 0.01 µM |
| CCC(C)CNc1nc(Nc2cccc(NC(C)=O)c2)ncc1C(N)=O (centres unmarked) [Example 249, 2-(3-acetamidophenylamino)-4-(2-methylbutylamino)pyrimidine-5-carboxamide] | 0.01 to 0.1 µM | 0.001 to 0.01 µM | < 0.001 µM | 0.001 to 0.01 µM |
| CC(C)CNc1cc(Nc2cccc(NC(=O)N3CCCC3)c2)ncc1C(N)=O [Example 324, 4-(isobutylamino)-6-(3-(pyrrolidine-1-carboxamido)phenylamino)nicotinamide] | 0.1 to 1 µM | 0.1 to 1 µM | 0.01 to 0.1 µM | 0.1 to 1 µM |
| NC(=O)c1cnc(Nc2ccc(F)c(NC(=O)N3CCCC3)c2)cc1NCc1cccnc1 [Example 304, 6-(4-fluoro-3-(pyrrolidine-1-carboxamido)phenylamino)-4-(pyridin-3-ylmethylamino)nicotinamide] | > 1 µM | > 1 µM | 0.01 to 0.1 µM | – |
| NC(=O)c1cnc(Nc2cccc(NC(=O)N3CCCC3)c2)cc1NCc1cccc(F)c1 [Example 309, 4-(3-fluorobenzylamino)-6-(3-(pyrrolidine-1-carboxamido)phenylamino)nicotinamide] | 0.1 to 1 µM | 0.01 to 0.1 µM | 0.001 to 0.01 µM | – |
| CC(=O)Nc1cccc(Nc2cc(N[C@H](CO)c3ccccc3)c(C(N)=O)cn2)c1 [Example 316, (S)-6-(3-acetamidophenylamino)-4-(2-hydroxy-1-phenylethylamino)nicotinamide] | 0.1 to 1 µM | 0.1 to 1 µM | 0.01 to 0.1 µM | – |

Results, then the compound that gave them:

| IC50 (JAK1) | IC50 (JAK2) | IC50 (JAK3) | IC50 (TYK2) | Compound |
| --- | --- | --- | --- | --- |
| 0.01 to 0.1 µM | 0.01 to 0.1 µM | 0.001 to 0.01 µM | 0.01 to 0.1 µM | NC(=O)c1cnc(Nc2cccc(NC(=O)N3CCCC3)c2)nc1NCc1cccc(Cl)c1 [Example 180, 4-(3-chlorobenzylamino)-2-(3-(pyrrolidine-1-carboxamido)phenylamino)pyrimidine-5-carboxamide] |
| 0.01 to 0.1 µM | 0.01 to 0.1 µM | 0.001 to 0.01 µM | 0.01 to 0.1 µM | CC[C@@H](C)Nc1nc(Nc2ccc(Cl)c(NC(=O)N3CCCC3)c2)ncc1C(N)=O [Example 237, (R)-4-(sec-butylamino)-2-(4-chloro-3-(pyrrolidine-1-carboxamido)phenylamino)pyrimidine-5-carboxamide] |
| 0.1 to 1 µM | 0.1 to 1 µM | 0.01 to 0.1 µM | 0.1 to 1 µM | COCC(=O)Nc1cc(Nc2ncc(C(N)=O)c(N[C@H](C)c3ccccc3)n2)ccc1Cl [Example 109, (R)-2-(4-chloro-3-(2-methoxyacetamido)phenylamino)-4-(1-phenylethylamino)pyrimidine-5-carboxamide] |
| 0.1 to 1 µM | 0.01 to 0.1 µM | 0.001 to 0.01 µM | 0.01 to 0.1 µM | C[C@@H](Nc1nc(Nc2cccc(NC(=O)[C@@H]3CCCO3)c2)ncc1C(N)=O)c1ccccc1 [Example 207, 4-((R)-1-phenylethylamino)-2-(3-((S)-tetrahydrofuran-2-carboxamido)phenylamino)pyrimidine-5-carboxamide] |
| 0.01 to 0.1 µM | 0.001 to 0.01 µM | 0.001 to 0.01 µM | 0.01 to 0.1 µM | C[C@@H](Nc1nc(Nc2cccc(NC(=O)N3CCN(C)CC3)c2)ncc1C(N)=O)c1ccccc1 [Example 254, (R)-2-(3-(4-methylpiperazine-1-carboxamido)phenylamino)-4-(1-phenylethylamino)pyrimidine-5-carboxamide] |
| 0.1 to 1 µM | 0.01 to 0.1 µM | 0.001 to 0.01 µM | 0.01 to 0.1 µM | C[C@@H](Nc1nc(Nc2cccc(NC(=O)N3CCCCC3)c2)ncc1C(N)=O)c1ccccc1 [Example 220, (R)-4-(1-phenylethylamino)-2-(3-(piperidine-1-carboxamido)phenylamino)pyrimidine-5-carboxamide] |
| > 1 µM | > 1 µM | 0.1 to 1 µM | 0.1 to 1 µM | C[C@@H](Nc1nc(Nc2ccc(Cl)c(NC(=O)NC3CCC3)c2)ncc1C(N)=O)c1ccccc1 [Example 111, (R)-2-(4-chloro-3-(3-cyclobutylureido)phenylamino)-4-(1-phenylethylamino)pyrimidine-5-carboxamide] |
| – | 0.1 to 1 µM | 0.1 to 1 µM | 0.1 to 1 µM | NC(=O)c1cnc(Nc2cccc(NC(=O)N3CCC[C@@H](O)C3)c2)nc1NCc1ccccc1 [Example 212, (R)-4-(benzylamino)-2-(3-(3-hydroxypiperidine-1-carboxamido)phenylamino)pyrimidine-5-carboxamide] |
| > 1 µM | 0.1 to 1 µM | 0.01 to 0.1 µM | – | NC(=O)c1cnc(Nc2cccc(NC(=O)N3CCCC3)c2)cc1NCc1cccnc1 [Example 320, 4-(pyridin-3-ylmethylamino)-6-(3-(pyrrolidine-1-carboxamido)phenylamino)nicotinamide] |
| 0.1 to 1 µM | 0.1 to 1 µM | 0.001 to 0.01 µM | – | NC(=O)c1cnc(Nc2cccc(NC(=O)N3CCOCC3)c2)cc1N[C@H](CO)c1ccccc1 [Example 314, (S)—N-(3-(5-carbamoyl-4-(2-hydroxy-1-phenylethylamino)pyridin-2-ylamino)phenyl)morpholine-4-carboxamide] |
